Measurements published in US7183299B2 (priority 2001, dated 2007).

Legend:
[1] = test system: downy mildew (Plasmopara viticola) on grape; conditions: in vivo
late blight on tomato = assay type: in vivo, Plasmopara viticola; conditions: tomato (Hofuku), therapeutic effect, sprayed after inoculation, active ingredient 100 ppm, disease severity 7 days after inoculation

SMILES	Control value (%) [1] [%]	Control value (%) (late blight on tomato)
CCCC(=O)Nc1cccc(CON=C(c2ccccc2)c2nnnn2C)n1 [(1)-6]	70	90
CC(C)C(=O)Nc1cccc(CON=C(c2ccccc2)c2nnnn2C)n1 [(1)-7]	100	100
CCCCC(=O)Nc1cccc(CON=C(c2ccccc2)c2nnnn2C)n1 [(1)-8]	70	90
CCCCCC(=O)Nc1cccc(CON=C(c2ccccc2)c2nnnn2C)n1 [(1)-12, (Z)-(1-methyltetrazol-5-yl)phenylmethanoneoxime 0-(6-(hexanoylamino)pyridin-2-yl)methyloxime]	100	100
Cn1nnnc1C(=NOCc1cccc(NC(=O)CC(C)(C)C)n1)c1ccccc1 [(1)-16]	70	100
CCCCCCC(=O)Nc1cccc(CON=C(c2ccccc2)c2nnnn2C)n1 [(1)-18]	100	100
Cn1nnnc1C(=NOCc1cccc(NC(=O)C2CC2)n1)c1ccccc1 [(1)-21]	70	90
CC(C)C(=O)Nc1nc(CON=C(c2ccccc2)c2nnnn2C)cs1 [(2)-7]	90	100
Cn1nnnc1C(=NOCc1csc(NC(=O)C(C)(C)C)n1)c1ccccc1 [(2)-11]	100	100
CCCCCC(=O)Nc1nc(CON=C(c2ccccc2)c2nnnn2C)cs1 [(2)-12]	90	100
Cn1nnnc1C(=NOCc1csc(NC(=O)CC(C)(C)C)n1)c1ccccc1 [(2)-16]	90	100
CCOC(=O)Nc1cccc(CON=C(c2ccccc2)c2nnnn2C)n1 [(3)-2]	70	90
CCCOC(=O)Nc1cccc(CON=C(c2ccccc2)c2nnnn2C)n1 [(3)-3]	90	100
CC(C)OC(=O)Nc1cccc(CON=C(c2ccccc2)c2nnnn2C)n1 [(3)-4]	90	100
CCCCOC(=O)Nc1cccc(CON=C(c2ccccc2)c2nnnn2C)n1 [(3)-5]	100	100
Cn1nnnc1C(=NOCc1cccc(NC(=O)OC(C)(C)C)n1)c1ccccc1 [(3)-8]	100	100
CCCCCOC(=O)Nc1cccc(CON=C(c2ccccc2)c2nnnn2C)n1 [(3)-9]	100	100
CCCCCCOC(=O)Nc1cccc(CON=C(c2ccccc2)c2nnnn2C)n1 [(3)-15]	100	100
CCCCCCCOC(=O)Nc1cccc(CON=C(c2ccccc2)c2nnnn2C)n1 [(3)-16]	100	100
Cn1nnnc1C(=NOCc1cccc(NC(=O)OCc2ccccc2)n1)c1ccccc1 [(3)-18]	100	100
CCC(C)(C)OC(=O)Nc1cccc(CON=C(c2ccccc2)c2nnnn2C)n1 [(3)-21]	70	100
Cn1nnnc1C(=NOCc1cccc(NC(=O)OC2CCCC2)n1)c1ccccc1 [(3)-22]	100	100

SMILES	Control value (%) [1] [%]	Control value (%) (late blight on tomato)
Cn1nnnc1C(=NOCc1cccc(NC(=O)OC2CCCCC2)n1)c1ccccc1 [(3)-23]	80	100
CCCCCCOC(=O)Nc1nc(CON=C(c2ccccc2)c2nnnn2C)cs1 [(4)-15]	70	80
Cn1nnnc1C(=NOCc1csc(NC(=O)OCc2ccccc2)n1)c1ccccc1 [(4)-18]	70	90
Cn1nnnc1C(=NOCc1cccc(NC(=O)Cc2ccccc2)n1)c1ccccc1 [(5)-12]	100	100
Cn1nnnc1C(=NOCc1cccc(NC(=O)c2ccccc2)n1)c1ccccc1 [(5)-14]	90	100
CCOCC(=O)Nc1nc(CON=C(c2ccccc2)c2nnnn2C)cs1 [(6)-2]	70	80
CSCCC(=O)Nc1nc(CON=C(c2ccccc2)c2nnnn2C)cs1 [(6)-6]	70	80
C=C(C)C(=O)Nc1nc(CON=C(c2ccccc2)c2nnnn2C)cs1 [(6)-7]	100	100
CCCOCCC(=O)Nc1nc(CON=C(c2ccccc2)c2nnnn2C)cs1 [(6)-15]	70	90
CCCC(=O)Nc1cccc(CON=C(c2ccc(Cl)cc2)c2nnnn2C)n1 [(7)-1]	70	80
Cn1nnnc1C(=NOCc1cccc(NC(=O)C2CC2)n1)c1ccc(Cl)cc1 [(7)-3]	80	80
COc1ccc(C(=NOCc2cccc(NC(=O)C3CC3)n2)c2nnnn2C)cc1 [(7)-11]	70	80
CCCCCC(=O)Nc1cccc(CON=C(c2ccc(C)cc2)c2nnnn2C)n1 [(7)-12]	100	100
CC(C)C(=O)Nc1nc(CON=C(c2ccc(Cl)cc2)c2nnnn2C)cs1 [(8)-2]	70	90
Cn1nnnc1C(=NOCc1csc(NC(=O)C(C)(C)C)n1)c1cccc(F)c1 [(8)-7]	70	80
COc1ccc(C(=NOCc2csc(NC(=O)C(C)(C)C)n2)c2nnnn2C)cc1 [(8)-10]	70	90
Cn1nnnc1C(=NOCc1csc(NC(=O)C(C)(C)C)n1)c1ccc(Cl)cc1 [(8)-17]	90	80
Cn1nnnc1C(=NOCc1cccc(NC(=O)OC(C)(C)C)n1)c1cccc(F)c1 [(9)-1]	100	100
CC(C)OC(=O)Nc1cccc(CON=C(c2ccc(F)cc2)c2nnnn2C)n1 [(9)-2]	70	80
Cn1nnnc1C(=NOCc1cccc(NC(=O)OC(C)(C)C)n1)c1ccc(F)cc1 [(9)-3]	70	90
Cc1ccc(C(=NOCc2cccc(NC(=O)OC(C)(C)C)n2)c2nnnn2C)cc1 [(9)-4]	100	100
CCCCCOC(=O)Nc1cccc(CON=C(c2ccc(C)cc2)c2nnnn2C)n1 [(9)-5]	100	100

SMILES	Control value (%) [1] [%]	Control value (%) (late blight on tomato)
CCCOC(=O)Nc1cccc(CON=C(c2cccc(F)c2)c2nnnn2C)n1 [(9)-6]	70	100
CCCCCC(=O)Nc1cccc(CON=C(c2cccc(C)c2)c2nnnn2C)n1 [(9)-7]	100	100
CCC(C)(C)OC(=O)Nc1cccc(CON=C(c2ccc(C)cc2)c2nnnn2C)n1 [(9)-9]	100	100
CCCCCOC(=O)Nc1cccc(CON=C(c2ccccc2C)c2nnnn2C)n1 [(9)-10]	100	100
CCCCOC(=O)Nc1cccc(CON=C(c2ccccc2C)c2nnnn2C)n1 [(9)-11]	100	100
CC(=O)Nc1cccc(CON=C(c2ccccc2)n2nnnc2C)n1 [(11)-4]	70	80
CCC(=O)Nc1cccc(CON=C(c2ccccc2)n2nnnc2C)n1 [(11)-5]	70	80
CCCC(=O)Nc1cccc(CON=C(c2ccccc2)n2nnnc2C)n1 [(11)-6]	70	80
Cc1nnnn1C(=NOCc1cccc(NC(=O)C(C)C)n1)c1ccccc1 [(11)-7]	100	100
CCCCC(=O)Nc1cccc(CON=C(c2ccccc2)n2nnnc2C)n1 [(11)-8]	100	100
Cc1nnnn1C(=NOCc1cccc(NC(=O)C(C)(C)C)n1)c1ccccc1 [(11)-11]	70	80
CCCCCC(=O)Nc1cccc(CON=C(c2ccccc2)n2nnnc2C)n1 [(11)-12, (Z)-(5-methyltetrazol-1-yl)phenylmethanoneoxime 0-(6-(hexanoylamino)pyridin-2-yl)methyloxime]	100	100
Cc1nnnn1C(=NOCc1cccc(NC(=O)C2CC2)n1)c1ccccc1 [(11)-21]	70	90
CCCC(=O)Nc1nc(CON=C(c2ccccc2)n2nnnc2C)cs1 [(12)-6]	80	100
Cc1nnnn1C(=NOCc1csc(NC(=O)C(C)C)n1)c1ccccc1 [(12)-7]	90	100
CCCCCC(=O)Nc1nc(CON=C(c2ccccc2)n2nnnc2C)cs1 [(12)-12, (Z)-(5-methyltetrazol-1-yl)phenylmethanoneoxime 0-(2-(n-hexanoylamino)thiazol-4-yl)methyloxime]	90	100
CCCCCCC(=O)Nc1nc(CON=C(c2ccccc2)n2nnnc2C)cs1 [(12)-18]	90	100
CCCCOC(=O)Nc1cccc(CON=C(c2ccccc2)n2nnnc2C)n1 [(13)-5]	70	90
Cc1nnnn1C(=NOCc1cccc(NC(=O)OC(C)(C)C)n1)c1ccccc1 [(13)-8]	90	100
CCCCCOC(=O)Nc1cccc(CON=C(c2ccccc2)n2nnnc2C)n1 [(13)-9]	100	100
CCCCCCOC(=O)Nc1cccc(CON=C(c2ccccc2)n2nnnc2C)n1 [(13)-15]	80	90
Cc1nnnn1C(=NOCc1cccc(NC(=O)OC2CCCC2)n1)c1ccccc1 [(13)-21]	80	100
